Biological target: T1, human μ opiate receptor (Homo sapiens, UniProt P35372)
T1 construct: purchased PerkinElmer Life Sciences, Zaventem, Belgium RB-HOM; host or cells: CHO-K1 cells (membrane preparation)
Experiment: Affinity for the human μ opiate receptor ([3H]-naloxone displacement, CHO-K1 receptor membrane preparation, SPA)
Format: binding
Details: test concentration of 1 μM
In short: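 Scintillation proximity binding on human μ receptor membranes from CHO-K1 cells used 1 nmol/l [3H]-naloxone over 90 min at room temperature in 50 mmol/l Tris-HCl, 0.06% BSA. Percent inhibition was recorded at 1 μM.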

T1 sequence (P35372 whole entry): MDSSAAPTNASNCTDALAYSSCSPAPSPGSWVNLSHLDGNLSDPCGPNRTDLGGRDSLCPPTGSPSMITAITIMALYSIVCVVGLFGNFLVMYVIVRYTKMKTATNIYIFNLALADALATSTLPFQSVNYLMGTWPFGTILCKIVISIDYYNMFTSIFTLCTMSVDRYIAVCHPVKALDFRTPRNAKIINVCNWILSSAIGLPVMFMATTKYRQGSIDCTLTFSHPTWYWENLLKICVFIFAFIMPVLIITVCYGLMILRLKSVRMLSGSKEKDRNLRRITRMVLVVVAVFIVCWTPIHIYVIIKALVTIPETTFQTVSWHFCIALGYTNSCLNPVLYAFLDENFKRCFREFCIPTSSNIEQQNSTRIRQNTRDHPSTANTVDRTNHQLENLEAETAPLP

Row | Structure (SMILES) | μ (binding on the μ opioid receptor, % inhibition) [%]
1 | CN(C)C(c1cccc(F)c1)C1CCC(CCNC(=O)COCCC2CCN(S(=O)(=O)c3ccccc3)CC2)CC1 (stereo not drawn) [Example 543] | 29
2 | CN(C)C(CCc1ccccc1)C1CCC(CNC(=O)COC2CCN(S(=O)(=O)c3ccccc3)CC2)CC1 (stereo not drawn) [Example 578] | 12
3 | CN(C)C(c1ccc(Cl)cc1)C1CCC(CNC(=O)COCCC2CCN(S(=O)(=O)c3ccccc3)CC2)CC1 (stereo not drawn) [Example 584] | 7
4 | COc1cc(C)c(S(=O)(=O)N2CCCC(OCC(=O)NCC3CCC(C(CCc4ccccc4)N(C)C)CC3)C2)c(C)c1C (stereo not drawn) [Example 551] | 35
5 | COc1ccc(S(=O)(=O)N2CCCCC2COCC(=O)NC2CCC(C(c3ccc(F)cc3)N(C)C)CC2)cc1OC (stereo not drawn) [Example 555] | 23
6 | CN(C)C(CCc1ccccc1)C1CCC(CNC(=O)COC2CCN(S(=O)(=O)c3ccccc3)C2)CC1 (stereo not drawn) [Example 573] | 23
7 | COc1ccc(S(=O)(=O)N(C)CCOCC(=O)NC2CCC(C(c3ccc(F)cc3)N(C)C)CC2)cc1 (stereo not drawn) [Example 549] | 29
8 | COc1cc(C)c(S(=O)(=O)N(CCOCC(=O)NCC2CCC(C(c3ccc(F)cc3)N(C)C)CC2)Cc2ccccc2)c(C)c1C (stereo not drawn) [Example 563] | 25
9 | CN(C)C(CCc1ccccc1)C1CCC(CNC(=O)COC2CCN(S(=O)(=O)c3cccc(C(F)(F)F)c3)C2)CC1 (stereo not drawn) [Example 552] | 23
10 | CN(C)C(c1ccc(Cl)cc1)C1CCC(CCNC(=O)COCCN(C)S(=O)(=O)c2ccc(OC(F)(F)F)cc2)CC1 (stereo not drawn) [Example 575] | 11
11 | CN(C)C(CCc1ccccc1)C1CCC(CNC(=O)COC2CCCN(S(=O)(=O)c3ccccc3)C2)CC1 (stereo not drawn) [Example 558] | 29
12 | COc1cc(C)c(S(=O)(=O)N(CCOCC(=O)NCC2CCC(C(c3ccc(Cl)cc3)N(C)C)CC2)Cc2ccccc2)c(C)c1C (stereo not drawn) [Example 560] | 22
13 | COc1cc(C)c(S(=O)(=O)N(CCOCC(=O)NCC2CCC(C(CCc3ccccc3)N(C)C)CC2)Cc2ccccc2)c(C)c1C (stereo not drawn) [Example 562] | 23
14 | COc1cc(C)c(S(=O)(=O)N(CCOCC(=O)NCCC2CCC(C(c3ccc(Cl)cc3)N(C)C)CC2)Cc2ccccc2)c(C)c1C (stereo not drawn) [Example 576] | 15
15 | CN(C)C(c1ccc(F)cc1)C1CCC(CNC(=O)COCCC2CCN(S(=O)(=O)c3ccccc3)CC2)CC1 (stereo not drawn) [Example 583] | 7
16 | Cc1cc(C)c(S(=O)(=O)N(C)CCOCC(=O)NCCC2CCC(C(c3cccc(F)c3)N(C)C)CC2)c(C)c1 (stereo not drawn) [Example 587] | −5
17 | CN(C)C(CCc1ccccc1)C1CCC(CNC(=O)COCCN(C)S(=O)(=O)c2ccc(OC(F)(F)F)cc2)CC1 (stereo not drawn) [Example 567] | 23
18 | CN(C)C(CCc1ccccc1)C1CCC(CNC(=O)COC2CCN(S(=O)(=O)c3ccc(Cl)cc3)C2)CC1 (stereo not drawn) [Example 557] | 26
19 | CN(C)C(CCc1ccccc1)C1CCC(CNC(=O)COCCN(C)S(=O)(=O)c2cccc(C(F)(F)F)c2)CC1 (stereo not drawn) [Example 556] | 27

Same assay, conditions: test concentration of 1 μM; 1 µM

Row | Structure (SMILES) | μ (binding on the μ opioid receptor, % inhibition) [%]
20 | COc1ccc(S(=O)(=O)N2CCCCC2COCC(=O)NCC2CCC(C(CCc3ccccc3)N(C)C)CC2)cc1OC (stereo not drawn) [Example 559] | 14
21 | CN(C)C(CCc1ccccc1)C1CCC(CNC(=O)COCCN(C)S(=O)(=O)c2c(Cl)cccc2Cl)CC1 (stereo not drawn) [Example 476] | 47
22 | CN(C)C(CCc1ccccc1)C1CCC(CNC(=O)COCCN(C)S(=O)(=O)c2c(Cl)cccc2Cl)CC1 (stereo not drawn) [Example 580] | 13
23 | COc1ccc(S(=O)(=O)N2CCCCC2COCC(=O)NCC2CCC(C(c3ccc(F)cc3)N(C)C)CC2)cc1OC (single isomer, unassigned) [Example 534] | 24
24 | COc1ccc(S(=O)(=O)N2CCCCC2COCC(=O)NCC2CCC(C(CCc3ccccc3)N(C)C)CC2)c(OC)c1 (stereo not drawn) [Example 420] | 53

Same assay, conditions: test concentration of 1 μM; read-out: μ (binding on the μ opioid receptor, % inhibition)

Row | Structure (SMILES) | inhibition at 1 µM [%]
25 | CN(C)C(c1cccc(F)c1)C1CCC(CCNC(=O)COCCN(C)S(=O)(=O)c2ccc(Cl)cc2Cl)CC1 (stereo not drawn) [Example 126, 2-(2-(2,4-dichloro-N-methylphenylsulfonamido)ethoxy)-N-(2-(4-((dimethylamino)(3-fluorophenyl)methyl)cyclohexyl)ethyl)acetamide] | 92
26 | COc1ccc(S(=O)(=O)N2Cc3ccccc3CC2COCC(=O)NCC2CCC(C(c3cccs3)N(C)C)CC2)cc1 (stereo not drawn) [Example 7, N-((4-((dimethylamino)(thiophen-2-yl)methyl)cyclohexyl)methyl)-2-((2-(4-methoxyphenylsulfonyl)-1,2,3,4-tetrahydroisoquinolin-3-yl)methoxy)acetamide] | 99
27 | COc1ccc(S(=O)(=O)N2CCCCC2CCOCC(=O)NC2CCC(C(c3cccs3)N(C)C)CC2)cc1 (stereo not drawn) [Example 6, N-(4-((dimethylamino)(thiophen-2-yl)methyl)cyclohexyl)-2-(2-(1-(4-methoxyphenylsulfonyl)piperidin-2-yl)ethoxy)acetamide] | 99
28 | CN(C)C(c1cccs1)C1CCC(CCNC(=O)COC2CCN(S(=O)(=O)c3cccc(C(F)(F)F)c3)C2)CC1 (stereo not drawn) [Example 96, N-(2-(4-((dimethylamino)(thiophen-2-yl)methyl)cyclohexyl)ethyl)-2-(1-(3-(trifluoromethyl)phenylsulfonyl)pyrrolidin-3-yloxy)acetamide] | 92
29 | CCN(CCOCC(=O)NCCC1CCC(C(c2cccs2)N(C)C)CC1)S(=O)(=O)c1c(C)cc(OC)c(C)c1C (stereo not drawn) [Example 103, N-(2-(4-((dimethylamino)(thiophen-2-yl)methyl)cyclohexyl)ethyl)-2-(2-(N-ethyl-4-methoxy-2,3,6-trimethylphenylsulfonamido)ethoxy)acetamide] | 94
30 | COc1ccc(S(=O)(=O)N2CCCC2COCC(=O)NCC2CCC(C(c3cccs3)N(C)C)CC2)cc1 (stereo not drawn) [Example 105, N-((4-((dimethylamino)(thiophen-2-yl)methyl)cyclohexyl)methyl)-2-((1-(4-methoxyphenylsulfonyl)pyrrolidin-2-yl)methoxy)acetamide] | 93
31 | CN(C)C(c1ccccc1)C1CCC(CNC(=O)COCCN(C)S(=O)(=O)c2ccc(F)cc2)CC1 (stereo not drawn) [Example 112, N-((4-((dimethylamino)(phenyl)methyl)cyclohexyl)methyl)-2-(2-(4-fluoro-N-methylphenylsulfonamido)ethoxy)acetamide] | 82
32 | CN(C)C(c1cccs1)C1CCC(CNC(=O)COC2CCN(S(=O)(=O)c3ccc(F)cc3)C2)CC1 (stereo not drawn) [Example 97, N-((4-((dimethylamino)(thiophen-2-yl)methyl)cyclohexyl)methyl)-2-(1-(4-fluorophenylsulfonyl)pyrrolidin-3-yloxy)acetamide] | 92
33 | CN(C)C(c1cccc(F)c1)C1CCC(NC(=O)COC2CCCCC2N(C)S(=O)(=O)c2ccc(Cl)c(Cl)c2)CC1 (stereo not drawn) [Example 132, 2-(2-(3,4-dichloro-N-methylphenylsulfonamido)cyclohexyloxy)-N-(4-((dimethylamino)(3-fluorophenyl)methyl)cyclohexyl)acetamide] | 91
34 | CN(C)C(c1cccs1)C1CCC(CNC(=O)COCCN(C)S(=O)(=O)c2ccc(Cl)cc2Cl)CC1 (stereo not drawn) [Example 8, 2-(2-(2,4-dichloro-N-methylphenylsulfonamido)ethoxy)-N-((4-((dimethylamino)(thiophen-2-yl)methyl)cyclohexyl)methyl)acetamide] | 98
35 | COc1ccc(S(=O)(=O)N(C)CCOCC(=O)NCC2CCC(C(c3cccs3)N(C)C)CC2)cc1OC (stereo not drawn) [Example 127, 2-(2-(3,4-Dimethoxy-N-methylphenylsulfonamido)ethoxy)-N-((4-((dimethylamino)(thiophen-2-yl)methyl)cyclohexyl)methyl)acetamide] | 87
36 | COc1ccc(S(=O)(=O)N2CCCCC2COCC(=O)NCCC2CCC(C(c3cccs3)N(C)C)CC2)cc1OC (stereo not drawn) [Example 120, 2-((1-(3,4-dimethoxyphenylsulfonyl)piperidin-2-yl)methoxy)-N-(2-(4-((dimethylamino)(thiophen-2-yl)methyl)cyclohexyl)ethyl)acetamide] | 92
37 | CN(C)C(c1cccs1)C1CCC(CNC(=O)COCCN(Cc2ccccc2)S(=O)(=O)c2ccccc2)CC1 (stereo not drawn) [Example 102, 2-(2-(N-benzylphenylsulfonamido)ethoxy)-N-((4-((dimethylamino)(thiophen-2-yl)methyl)cyclohexyl)methyl)acetamide] | 94
38 | CN(C)C(c1cccs1)C1CCC(CCNC(=O)COCCN2CCN(S(=O)(=O)c3ccccc3)CC2)CC1 (stereo not drawn) [Example 99, N-(2-(4-((dimethylamino)(thiophen-2-yl)methyl)cyclohexyl)ethyl)-2-(2-(4-(phenylsulfonyl)piperazin-1-yl)ethoxy)acetamide] | 92
39 | COc1ccc(S(=O)(=O)N2CCCCC2COCC(=O)NCC2CCC(C(c3ccccc3)N(C)C)CC2)c(OC)c1 (stereo not drawn) [Example 106, 2-((1-(2,4-dimethoxyphenylsulfonyl)piperidin-2-yl)methoxy)-N-((4-((dimethylamino)(phenyl)methyl)cyclohexyl)methyl)acetamide] | 92

— US8106055B2, “Substituted amide compounds” (Gruenenthal GmbH, priority 2007, dated 2012)
